In US20230085307A1, “PYRIDAZINONE COMPOUND AND HERBICIDE” (NISSAN CHEMICAL CORPORATION, priority 2019, published 2023):

Tests used:
[1] = system: green foxtail; assay: Test Example 5: herbicidal effect by foliage application, plastic box (Table 20, symbol G); format: in vivo, green foxtail (Setaria viridis); details: foliage application, 320 g/ha, evaluated three weeks after application
Outline: (§1)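 Plants were sown into sterilized diluvial soil under about 1.5 cm cover and kept in a greenhouse at 25° C. to 30° C. Fourteen days on, foliage received an even spray of the diluted emulsion. Herbicidal or crop effect was judged three weeks afterwards.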

[2] = system: lambsquarters; assay: Test Example 4: herbicidal effect by soil treatment (Table 19, symbol O); format: in vivo, lambsquarters (Chenopodium album); details: amount of applied herbicide 320 g/ha
Outline: (§2)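 Pre-emergence style soil spray: seeds under ~1.5 cm sterilized diluvial soil received a uniform coat of emulsion diluted to the predetermined herbicide amount. Greenhouse 25–30° C; readout at week three on previously defined criteria.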

[3] = system: lambsquarters; assay: Test Example 5: herbicidal effect by foliage application, plastic box (Table 20, symbol O); format: in vivo, lambsquarters (Chenopodium album); details: foliage application, 320 g/ha, evaluated three weeks after application
Outline: as §1

[4] = system: wild oat; assay: Test Example 5: herbicidal effect by foliage application, plastic box (Table 20, symbol I); format: in vivo, wild oat (Avena fatua); details: foliage application, 320 g/ha, evaluated three weeks after application
Outline: as §1

[5] = system: velvetleaf; assay: Test Example 5: herbicidal effect by foliage application, plastic box (Table 20, symbol M); format: in vivo, velvetleaf (Abutilon theophrasti); details: foliage application, 320 g/ha, evaluated three weeks after application
Outline: as §1

[6] = system: redroot pigweed; assay: Test Example 5: herbicidal effect by foliage application, plastic box (Table 20, symbol N); format: in vivo, redroot pigweed (Amaranthus retroflexus); details: foliage application, 320 g/ha, evaluated three weeks after application
Outline: as §1

[7] = system: green foxtail; assay: Test Example 4: herbicidal effect by soil treatment (Table 19, symbol G); format: in vivo, green foxtail (Setaria viridis); details: amount of applied herbicide 320 g/ha
Outline: as §2

[8] = system: blackgrass; assay: Test Example 4: herbicidal effect by soil treatment (Table 19, symbol J); format: in vivo, blackgrass (Alopecurus myosuroides); details: amount of applied herbicide 320 g/ha
Outline: as §2

[9] = system: Chinese sprangletop; assay: Test Example 3: herbicidal effect by foliage application, Wagner pot (Table 18, symbol D); format: in vivo, chinese sprangletop (Leptochloa chinensis); details: amount of applied herbicide 320 g/ha
Outline: (§3)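 Plants were sown in alluvial soil held under 0.1–0.5 cm standing water and grown 14 days in a greenhouse at 25–30 °C. An emulsifiable formulation, water-diluted to the set dose, was then sprayed onto the foliage, and effects were scored three weeks later using previously defined criteria.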

[10] = system: windgrass; assay: Test Example 5: herbicidal effect by foliage application, plastic box (Table 20, symbol L); format: in vivo, windgrass (Apera spica-venti); details: foliage application, 320 g/ha, evaluated three weeks after application
Outline: as §1

[11] = system: persian speedwell; assay: Test Example 4: herbicidal effect by soil treatment (Table 19, symbol R); format: in vivo, Persian speedwell (Veronica persica); details: amount of applied herbicide 320 g/ha
Outline: as §2

[12] = system: Italian ryegrass; assay: Test Example 5: herbicidal effect by foliage application, plastic box (Table 20, symbol K); format: in vivo, Italian ryegrass (Lolium multiflorum); details: foliage application, 320 g/ha, evaluated three weeks after application
Outline: as §1

[13] = system: chickweed; assay: Test Example 5: herbicidal effect by foliage application, plastic box (Table 20, symbol P); format: in vivo, common chickweed (Stellaria media); details: foliage application, 320 g/ha, evaluated three weeks after application
Outline: as §1

[14] = system: redroot pigweed; assay: Test Example 4: herbicidal effect by soil treatment (Table 19, symbol N); format: in vivo, redroot pigweed (Amaranthus retroflexus); details: amount of applied herbicide 320 g/ha
Outline: as §2

[15] = system: barnyard grass; assay: Test Example 3: herbicidal effect by foliage application, Wagner pot (Table 18, symbol H); format: in vivo, barnyard grass (Echinochloa crus-galli); details: amount of applied herbicide 320 g/ha
Outline: as §3

[16] = system: Japanese bulrush; assay: Test Example 1: herbicidal activity, application before weed generation under submerged conditions (Table 16, symbol B); format: in vivo, Japanese bulrush (Schoenoplectus juncoides); details: 320 g/ha applied herbicide
Outline: (§4)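 Emulsion formulation, water-diluted to set dose, was put onto the flooded surface (4 cm depth, alluvial soil) the same day weeds were sown and 2.5-leaf rice transplanted. After 3 weeks at 25-30 °C under glass, each species was rated 0 (≤5% kill) to 5 (≥90% kill).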

[17] = system: blackgrass; assay: Test Example 5: herbicidal effect by foliage application, plastic box (Table 20, symbol J); format: in vivo, blackgrass (Alopecurus myosuroides); details: foliage application, 320 g/ha, evaluated three weeks after application
Outline: as §1

[18] = system: southern crabgrass; assay: Test Example 4: herbicidal effect by soil treatment (Table 19, symbol F); format: in vivo, southern crabgrass (Digitaria ciliaris); details: amount of applied herbicide 320 g/ha
Outline: as §2

[19] = system: chickweed; assay: Test Example 4: herbicidal effect by soil treatment (Table 19, symbol P); format: in vivo, common chickweed (Stellaria media); details: amount of applied herbicide 320 g/ha
Outline: as §2

[20] = system: persian speedwell; assay: Test Example 5: herbicidal effect by foliage application, plastic box (Table 20, symbol R); format: in vivo, Persian speedwell (Veronica persica); details: foliage application, 320 g/ha, evaluated three weeks after application
Outline: as §1

[21] = system: barnyard grass; assay: Test Example 5: herbicidal effect by foliage application, plastic box (Table 20, symbol H); format: in vivo, barnyard grass (Echinochloa crus-galli); details: foliage application, 320 g/ha, evaluated three weeks after application
Outline: as §1

[22] = system: rice flat sedge; assay: Test Example 3: herbicidal effect by foliage application, Wagner pot (Table 18, symbol E); format: in vivo, rice flat sedge (Cyperus iria); details: amount of applied herbicide 320 g/ha
Outline: as §3

[23] = system: windgrass; assay: Test Example 4: herbicidal effect by soil treatment (Table 19, symbol L); format: in vivo, windgrass (Apera spica-venti); details: amount of applied herbicide 320 g/ha
Outline: as §2

[24] = system: late watergrass; assay: Test Example 1: herbicidal activity, application before weed generation under submerged conditions (Table 16, symbol A); format: in vivo, late watergrass (Echinochloa oryzicola); details: 320 g/ha applied herbicide
Outline: as §4

[25] = system: Italian ryegrass; assay: Test Example 4: herbicidal effect by soil treatment (Table 19, symbol K); format: in vivo, Italian ryegrass (Lolium multiflorum); details: amount of applied herbicide 320 g/ha
Outline: as §2

[26] = system: southern crabgrass; assay: Test Example 5: herbicidal effect by foliage application, plastic box (Table 20, symbol F); format: in vivo, southern crabgrass (Digitaria ciliaris); details: foliage application, 320 g/ha, evaluated three weeks after application
Outline: as §1

[27] = system: barnyard grass; assay: Test Example 4: herbicidal effect by soil treatment (Table 19, symbol H); format: in vivo, barnyard grass (Echinochloa crus-galli); details: amount of applied herbicide 320 g/ha
Outline: as §2

[28] = system: wild oat; assay: Test Example 4: herbicidal effect by soil treatment (Table 19, symbol I); format: in vivo, wild oat (Avena fatua); details: amount of applied herbicide 320 g/ha
Outline: as §2

[29] = system: oval-leafed pondweed; assay: Test Example 1: herbicidal activity, application before weed generation under submerged conditions (Table 16, symbol C); format: in vivo, oval-leafed pondweed (Monochoria vaginalis); details: 320 g/ha applied herbicide
Outline: as §4

[30] = system: velvetleaf; assay: Test Example 4: herbicidal effect by soil treatment (Table 19, symbol M); format: in vivo, velvetleaf (Abutilon theophrasti); details: amount of applied herbicide 320 g/ha
Outline: as §2

Structure (SMILES): Cc1nn(C)c(=O)c(-c2c(-c3cccc(OC(F)(F)F)c3)sc3ccc(F)cc23)c1O [2-236]
- herbicidal effect on G: green foxtail (criteria 0-5) [1]: 3 (Herbicidal rate of 40% or more and less than 70%)
- herbicidal effect on O: lambsquarters [2]: 1 (Herbicidal rate of 5% or more and less than 20%)
- herbicidal effect on O: lambsquarters (criteria 0-5) [3]: 2 (Herbicidal rate of 20% or more and less than 40%)
- herbicidal effect on I: wild oat (criteria 0-5) [4]: 0 (Herbicidal rate of 5% or less (almost no effect))
- herbicidal effect on M: velvetleaf (criteria 0-5) [5]: 1 (Herbicidal rate of 5% or more and less than 20%)
- herbicidal effect on N: redroot pigweed (criteria 0-5) [6]: 5 (Herbicidal rate of 90% or more (almost completely withered))
- herbicidal effect on G: green foxtail [7]: 0 (Herbicidal rate of 5% or less (almost no effect))
- herbicidal effect on J: blackgrass [8]: 0 (Herbicidal rate of 5% or less (almost no effect))
- herbicidal effect on D: Chinese sprangletop [9]: 3 (Herbicidal rate of 40% or more and less than 70%)
- herbicidal effect on L: windgrass (criteria 0-5) [10]: 1 (Herbicidal rate of 5% or more and less than 20%)
- herbicidal effect on R: persian speedwell [11]: 0 (Herbicidal rate of 5% or less (almost no effect))
- herbicidal effect on K: Italian ryegrass (criteria 0-5) [12]: 0 (Herbicidal rate of 5% or less (almost no effect))
- herbicidal effect on P: chickweed (criteria 0-5) [13]: 5 (Herbicidal rate of 90% or more (almost completely withered))
- herbicidal effect on N: redroot pigweed [14]: 2 (Herbicidal rate of 20% or more and less than 40%)
- herbicidal effect on H: barnyard grass [15]: 4 (Herbicidal rate of 70% or more and less than 90%)
- Herbicidal effect on B: Japanese bulrush (grade 0-5) [16]: 3 (Herbicidal rate of 40% or more and less than 70%)
- herbicidal effect on J: blackgrass (criteria 0-5) [17]: 0 (Herbicidal rate of 5% or less (almost no effect))
- herbicidal effect on F: southern crabgrass [18]: 0 (Herbicidal rate of 5% or less (almost no effect))
- herbicidal effect on P: chickweed [19]: 0 (Herbicidal rate of 5% or less (almost no effect))
- herbicidal effect on R: persian speedwell (criteria 0-5) [20]: 3 (Herbicidal rate of 40% or more and less than 70%)
- herbicidal effect on H: barnyard grass (criteria 0-5) [21]: 0 (Herbicidal rate of 5% or less (almost no effect))
- herbicidal effect on E: rice flat sedge [22]: 5 (Herbicidal rate of 90% or more (almost completely withered))
- herbicidal effect on L: windgrass [23]: 0 (Herbicidal rate of 5% or less (almost no effect))
- Herbicidal effect on A: late watergrass (grade 0-5) [24]: 3 (Herbicidal rate of 40% or more and less than 70%)
- herbicidal effect on K: Italian ryegrass [25]: 0 (Herbicidal rate of 5% or less (almost no effect))
- herbicidal effect on F: southern crabgrass (criteria 0-5) [26]: 0 (Herbicidal rate of 5% or less (almost no effect))
- herbicidal effect on H: barnyard grass [27]: 0 (Herbicidal rate of 5% or less (almost no effect))
- herbicidal effect on I: wild oat [28]: 0 (Herbicidal rate of 5% or less (almost no effect))
- Herbicidal effect on C: oval-leafed pondweed (grade 0-5) [29]: 2 (Herbicidal rate of 20% or more and less than 40%)
- herbicidal effect on M: velvetleaf [30]: 0 (Herbicidal rate of 5% or less (almost no effect))
